According to US20100285959A1, “HERBICIDAL MIXTURES” (priority 2006, published 2010):

What was measured:
velvetleaf (ABUTH) [1] = test: Test 15 greenhouse, postemergence; conditions: 12 DAA
shepherd's purse (CAPBP) = test: Test 5 field trial, postemergence; assay type: in vivo, Capsella bursa-pastoris; conditions: atrazine 1120, glufosinate 470 or glyphosate 1120 g a.i./ha alone
Excerpt: (§1) Corn seeds (hybrid ‘Pioneer 38H69’) were planted in mid spring season, 5.1 cm deep in a silty clay loam soil having 3% organic matter and a pH of 6.5. Plots were 9.1 m long by 3.0 m wide with rows spaced 76 cm apart. The field was managed using conventional tillage practices. […] All treatments included a surfactant except glufosinate treatments, both alone and in combination. […] Results are summarized in Table 5 and are the means of the three replicates.

velvetleaf (ABUTH) [2] = test: Test 6 field trial, postemergence; assay type: in vivo, Abutilon theophrasti; conditions: 470 g a.i./ha
Excerpt: (§2) Corn seeds (hybrid ‘Pioneer 35Y62’) were planted in mid spring season, 3.8 cm deep in a silt loam soil having 4% organic matter and a pH of 5.8. Plots were 10.7 m long by 1.5 m wide with rows spaced 76 cm apart. Seeds were spaced 18 cm apart within the rows. The field was managed using conventional tillage practices. […] All treatments included a surfactant except glufosinate treatments, both alone and in combination. […] Results are summarized in Table 6 and are the means of the three replicates.

corn (ZEAMD) [3] = test: Test 6 field trial, postemergence; assay type: in vivo, Zea mays ssp. indentata; conditions: 470 g a.i./ha
Excerpt: as §2

[4] = test system: common lambsquarters (CHEAL); test: Test 5 field trial, postemergence; assay type: in vivo, Chenopodium album; conditions: atrazine 1120, glufosinate 470 or glyphosate 1120 g a.i./ha alone
Excerpt: as §1

[5] = test system: common lambsquarters (CHEAL); test: Test 6 field trial, postemergence; assay type: in vivo, Chenopodium album; conditions: 470 g a.i./ha
Excerpt: as §2

velvetleaf (ABUTH) [6] = test: Test 5 field trial, postemergence; assay type: in vivo, Abutilon theophrasti; conditions: atrazine 1120, glufosinate 470 or glyphosate 1120 g a.i./ha alone
Excerpt: as §1

field pennycress (THLAR) = test: Test 5 field trial, postemergence; assay type: in vivo, Thlaspi arvense; conditions: atrazine 1120, glufosinate 470 or glyphosate 1120 g a.i./ha alone
Excerpt: as §1

giant foxtail (SETFA) [7] = test: Test 6 field trial, postemergence; assay type: in vivo, Setaria faberi; conditions: 470 g a.i./ha
Excerpt: as §2

corn (ZEAMD) [8] = test: Test 5 field trial, postemergence; assay type: in vivo, Zea mays ssp. indentata; conditions: atrazine 1120, glufosinate 470 or glyphosate 1120 g a.i./ha alone
Excerpt: as §1

yellow foxtail (SETLU) [9] = test: Test 6 field trial, postemergence; assay type: in vivo, Setaria glauca; conditions: 470 g a.i./ha
Excerpt: as §2

yellow foxtail (SETLU) [10] = test: Test 5 field trial, postemergence; assay type: in vivo, Setaria glauca; conditions: atrazine 1120, glufosinate 470 or glyphosate 1120 g a.i./ha alone
Excerpt: as §1

[11] = test system: Pennsylvania smartweed (POLPY); test: Test 6 field trial, postemergence; assay type: in vivo, Polygonum pensylvanicum; conditions: 470 g a.i./ha
Excerpt: as §2

redroot pigweed (AMARE) = test: Test 6 field trial, postemergence; assay type: in vivo, Amaranthus retroflexus; conditions: 470 g a.i./ha
Excerpt: as §2

large crabgrass (DIGSA) = test: Test 5 field trial, postemergence; assay type: in vivo, Digitaria sanguinalis; conditions: atrazine 1120, glufosinate 470 or glyphosate 1120 g a.i./ha alone
Excerpt: as §1

common ragweed (AMBEL) = test: Test 5 field trial, postemergence; assay type: in vivo, Ambrosia artemisiifolia; conditions: atrazine 1120, glufosinate 470 or glyphosate 1120 g a.i./ha alone
Excerpt: as §1

giant foxtail (SETFA) [12] = test: Test 5 field trial, postemergence; assay type: in vivo, Setaria faberi; conditions: atrazine 1120, glufosinate 470 or glyphosate 1120 g a.i./ha alone
Excerpt: as §1

CCOc1cc(Oc2ccc(C(F)(F)F)cc2Cl)ccc1[N+](=O)[O-] [Oxyfluorfen]
Obs response, scale 0 to 100 (velvetleaf (ABUTH) [1]; 15 g a.i./ha): 43 | Obs response, scale 0 to 100 (velvetleaf (ABUTH) [1]; 30 g a.i./ha): 67 | Obs response, scale 0 to 100 (velvetleaf (ABUTH) [1]; 60 g a.i./ha): 81

CP(=O)(O)CCC(N)C(=O)O (centres unmarked) [Glufosinate]
CAPBP Obs (shepherd's purse (CAPBP); 16 DAA): 100% | CAPBP Obs (shepherd's purse (CAPBP); 31 DAA): 100% | ABUTH Obs (velvetleaf (ABUTH) [2]; 14 DAA): 0% | ABUTH Obs (velvetleaf (ABUTH) [2]; 28 DAA): 0% | ZEAMD Obs (corn (ZEAMD) [3]; 14 DAA): 0% | ZEAMD Obs (corn (ZEAMD) [3]; 28 DAA): 0% | CHEAL Obs ([4]; 16 DAA): 87% | CHEAL Obs ([4]; 31 DAA): 79% | CHEAL Obs ([5]; 14 DAA): 100% | CHEAL Obs ([5]; 28 DAA): 100% | ABUTH Obs (velvetleaf (ABUTH) [6]; 16 DAA): 33% | ABUTH Obs (velvetleaf (ABUTH) [6]; 31 DAA): 27% | THLAR Obs (field pennycress (THLAR); 16 DAA): 100% | THLAR Obs (field pennycress (THLAR); 31 DAA): 100% | SETFA Obs (giant foxtail (SETFA) [7]; 14 DAA): 99% | SETFA Obs (giant foxtail (SETFA) [7]; 28 DAA): 99% | ZEAMD Obs (corn (ZEAMD) [8]; 16 DAA): 0% | ZEAMD Obs (corn (ZEAMD) [8]; 31 DAA): 0% | SETLU Obs (yellow foxtail (SETLU) [9]; 14 DAA): 95% | SETLU Obs (yellow foxtail (SETLU) [9]; 28 DAA): 63% | SETLU Obs (yellow foxtail (SETLU) [10]; 16 DAA): 98% | SETLU Obs (yellow foxtail (SETLU) [10]; 31 DAA): 90% | POLPY Obs ([11]; 14 DAA): 98% | POLPY Obs ([11]; 28 DAA): 98% | AMARE Obs (redroot pigweed (AMARE); 14 DAA): 100% | AMARE Obs (redroot pigweed (AMARE); 28 DAA): 100% | DIGSA Obs (large crabgrass (DIGSA); 16 DAA): 99% | DIGSA Obs (large crabgrass (DIGSA); 31 DAA): 94% | AMBEL Obs (common ragweed (AMBEL); 16 DAA): 100% | AMBEL Obs (common ragweed (AMBEL); 31 DAA): 100% | SETFA Obs (giant foxtail (SETFA) [12]; 16 DAA): 100% | SETFA Obs (giant foxtail (SETFA) [12]; 31 DAA): 99%

O=C1[C@H]2C[C@H](F)CN2C(=O)N1c1cc(NS(=O)(=O)CCl)c(Cl)cc1F [Profluazol]
Obs response, scale 0 to 100 (velvetleaf (ABUTH) [1]; 2 g a.i./ha): 91 | Obs response, scale 0 to 100 (velvetleaf (ABUTH) [1]; 8 g a.i./ha): 100 | Obs response, scale 0 to 100 (velvetleaf (ABUTH) [1]; 15 g a.i./ha): 100
